Test results taken from US10674724B2, “Method of activating immune response in plants” (priority 2012, dated 2020).

Experiments:
[1] = system: transcription activity of Δ513; assay: in vivo plant transcription assay, Δ513:DB co-expressed with BTB/POZ; type: cell-based, Arabidopsis thaliana; conditions: 1 mM salicylic acid in medium
Method: Arabidopsis thaliana (Columbia) leaves were harvested from four-week-old plants grown at 21° C. (day) and 18° C. (night) with a ten-hour photoperiod and transferred to Petri dishes containing MS salts and micronutrients supplemented with B5 vitamins, 1% sucrose and 0.8% agar at a pH of 5.8. […] Coating of the gold particles and general procedures and preparation of the biolistic experiments were as per the manufacturer's instructions (Bio-Rad). After bombardment, leaves were kept in the conditions described above for a period of 24 hours before assaying. Enzyme assays were performed using the Dual-Luciferase Reporter Assay® system (Promega) following the manufacturer's instructions. Luminescence was measured on a Berthold Lumat LB9507 Luminometer (Bad Wildbad, Germany) and the data obtained represented the value of the reporter gene divided by the value of the internal standard and expressed as Relative Luciferase Units. To increase signal-to-noise ratio in some experiments, qPCR was performed to measure the amount of Firefly and Renilla Luciferases mRNA. The data was reported as Relative Expression and represented the value of the reporter mRNA divided by the value of the internal standard mRNA. The ratio obtained for Ga14 DB was assigned an arbitrary value of 1. […]
It was then determined whether or not the BTB/POZ could modulate the transcriptional properties of Δ513 (FIG. 5F). […]

[2] = molecular target: T1, NPR1 (Arabidopsis thaliana, UniProt P93002); assay: Sephacryl S300 gel filtration of Strep-tagged NPR1; type: biochemical
T1 construct: made in house; host or cells: E. coli
Method: (§1) Strep-tagged purified proteins in a final volume of 2 ml were subjected to gel filtration analysis on the Sephacryl S100 HR or Sephacryl S300 HR packed in 50 cm long HR 16 columns (GE Health) and equilibrated with S300 chromatography buffer (50 mM HEPES, pH 7.4, 250 mM NaCl. Elutions, in 0.5 ml fractions, were performed in the same buffer at a flow rate of 0.8 ml/min. Where indicated, proteins were incubated with 1 mM SA, 1 mM catechol, 1 mM 4-hydroxy benzoic acid, or 1 mM methyl-salicylate at room temperature for 30 min prior to chromatography as described above with the exception that the chromatography buffer was supplemented with 1 mM SA, 1 mM catechol, 1 mM 4-hydroxy benzoic acid, or 1 mM methyl-salicylate, respectively. In the case of the EDTA treatment, NPR1 was stripped of its metal by a 50 mM EDTA treatment of 30 min, followed by an incubation of 30 min with 1 mM SA prior to gel filtration. In this case, the chromatography buffer was supplemented with 1 mM SA.

[3] = molecular target: T2, NPR1-dependent oligomer on the PR-1 promoter (Arabidopsis thaliana, UniProt P93002); assay: Cross-linked-chromatin chromatography (3C Method); type: in vivo; conditions: wild-type plants, region −734 to −833
T2 construct: in wild-type plants (WT), such an oligomer forms on the PR-1 promoter; endogenous in cells; host or cells: wild-type Arabidopsis plants
T2 sequence (P93002 1-593): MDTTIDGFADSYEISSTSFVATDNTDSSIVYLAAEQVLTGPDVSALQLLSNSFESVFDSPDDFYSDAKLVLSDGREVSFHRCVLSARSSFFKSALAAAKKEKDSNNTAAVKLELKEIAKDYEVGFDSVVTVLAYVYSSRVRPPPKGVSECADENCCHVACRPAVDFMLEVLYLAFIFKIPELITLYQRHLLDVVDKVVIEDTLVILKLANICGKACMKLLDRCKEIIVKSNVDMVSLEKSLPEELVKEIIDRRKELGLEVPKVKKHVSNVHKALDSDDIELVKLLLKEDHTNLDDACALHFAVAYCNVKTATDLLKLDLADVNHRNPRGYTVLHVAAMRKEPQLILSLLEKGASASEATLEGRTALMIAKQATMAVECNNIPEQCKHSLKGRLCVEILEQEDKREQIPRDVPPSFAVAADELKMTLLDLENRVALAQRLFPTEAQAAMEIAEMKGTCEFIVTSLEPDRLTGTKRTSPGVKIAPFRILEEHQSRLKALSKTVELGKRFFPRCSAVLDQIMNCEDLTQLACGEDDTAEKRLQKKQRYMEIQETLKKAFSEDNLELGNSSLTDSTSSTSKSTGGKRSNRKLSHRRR
Method: Plant treatment, cross-linking, sonication, and cross-linking reversal were performed as for chromatin-immunoprecipitation (Rochon et al., 2006). Chromatography was as described under “Chromatography”. qPCR was performed with PR1 and Ubiquitin5 primers. PR-1 values were normalized against Ubiquitin5 (see Table 1 for primer sequence).
Although there are no decisive methods to test the stoichiometry of a protein in vivo, it was determined whether or not NPR1-dependent oligomers form on DNA in vivo by combining chromatin cross-linking, gel filtration, and qPCR (the 3C Method). The rationale was that, if an NPR1-dependent oligomer forms on the PR1 promoter in vivo, the presence of PR1 should be detectable by qPCR in the void fraction of an S300 after the chromatin had been cross-linked and sheared by sonication.

[4] = molecular target: T3, Δ513 (Arabidopsis thaliana, UniProt P93002); assay: Sephacryl S100 gel filtration of Strep-tagged Δ513; type: biochemical; conditions: 1 mM SA
T3 construct: made in house; host or cells: E. coli
T3 sequence (P93002 513-593): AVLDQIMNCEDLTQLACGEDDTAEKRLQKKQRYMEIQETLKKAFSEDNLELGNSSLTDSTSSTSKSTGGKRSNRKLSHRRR
Method: as §1

SMILES: O=C(O)c1ccccc1O [SA, Salicylic acid]
- transcription activity of Δ513 co-expressed with BTB/POZ in SA-treated cells [1]: unaffected by the BTB/POZ
- conformation of NPR1 (S300 elution profile) ([2]; 1 mM SA, catechol, 4-hydroxy benzoic acid or methyl-salicylate, 30 min, DTT concentration not given): redistributed to the included volume
- SA-induced NPR1 conformation change after metal chelation ([2]; 50 mM EDTA 30 min, then 1 mM SA 30 min): abolished the NPR1 conformation change
- NPR1-dependent oligomer on the PR-1 promoter (void fraction, qPCR) [3]: not after a treatment with SA
- stoichiometry of Δ513 after SA treatment (S100) [4]: consistent with that of a dimer
